# Results taken from PMC8448693, “Effects of co-formulants on the absorption and secretion of active substances in plant protection products in vitro” (Archives of Toxicology, 2021).
# Columns and labels:
# [1] = tested on: Caco-2 cell membrane fluidity; assay: DPH fluorescence anisotropy (membrane fluidity) in Caco-2 cells; format: cell-based; settings: Caco-2, vs untreated control
# Protocol: Furthermore, the active ingredients and the products were investigated at sub-cytotoxic concentrations to rule out any impact of the active ingredients. Briefly, Caco-2 cells were cultivated in six-well plates for 21 days and detached on day 21 using 1 mL Accutase Cell Detachment Solution (ACC-1B, Capricorn Scientific GmbH, Ebsdorfergrund, Germany) per well. After incubation for 20-30 min at room temperature, detached cells were separated by centrifugation. […] Fluorescence anisotropy measurements were performed at 37 °C using a dual monochromator fluorescence spectrometer (model LS 55, PerkinElmer, Rodgau, Germany) fitted with polarizing filters and a stirred cell. Samples were excited with 355 nm vertical polarised light and emission was measured at 430 nm in vertical and horizontal direction. Since fluorescence anisotropy is inversely related to membrane fluidity, decreased DPH fluorescence anisotropy implies an increased membrane fluidity. Three independent experiments were performed (n = 3). The fluorescence anisotropy (r) is defined by following equation: […]: fluorescence intensity measured in direction parallel to the polarised exciting light.IVH: fluorescence intensity measured in direction perpendicular to the polarised exciting light.G: IVH/IHH; correction factor for the instrument.
# recombinant human Pgp = recombinant human Pgp (Homo sapiens, UniProt P08183); assay: Pgp ATPase assay (Pgp-Glo assay system)
# Protocol: This study focused on potential effects on Pgp transporters.
# Pgp ATPase activity modulation was determined using the Pgp-Glo assay system (Promega, Madison, WI, USA) following the manufacturer's user protocol. Briefly, 25 µg of recombinant human Pgp membrane in Pgp-Glo assay buffer was incubated with different concentrations of each active substance or co-formulant in combination with 200 µM verapamil at 37 °C for 5 min. […] 5 mM MgATP was added to each well and 96-well plates were incubated at 37 °C for 40 min to initiate the reaction. Luminescence of the remaining, unmetabolised ATP was initiated by adding 50 µl of 25 mM ATP detection reagent. After briefly shaking on a plate shaker, 96-well plates were incubated at room temperature for 20 min. The luciferase generated luminescence signal was measured on an Infinite M200 PRO plate reader (Tecan, Maennedorf, Swiss). All measurements were corrected by subtraction of Na3VO4-treated signals (non Pgp ATPase activity) and represented as changes in luminescence signals (ΔRLU). […] Changes in luminescence (ΔRLU) caused by the co-formulants and abamectin incubated with verapamil were compared to ΔRLU caused by verapamil. ΔRLU values of the active ingredients (without verapamil) were compared to ΔRLU values of untreated samples (basal ΔRLU). Each condition was measured in four replicates (n = 4).
# Caco-2 cells = assay: WST-1 cytotoxicity assay in Caco-2 cells, 24 h exposure; format: cell-based; settings: WST-1, Caco-2, 24 h; tested range ≤ 960 mg/L
# Protocol: Caco-2 cells (ECACC: 86010202) were purchased from the European Collection of Authenticated Cell Cultures (Salisbury, UK). […] The cells were cultivated at 37 °C, 5% CO2 and […] atmosphere in a cell culture incubator. They were passaged when reaching 80–90% confluence every 2 to 3 days. Passaging was performed at maximum ten times and by aspirating the medium, washing with phosphate-buffered saline (PBS) and incubating with trypsin–EDTA (0.05%) in Dulbecco’s phosphate-buffered saline (Capricorn Scientific GmbH, Ebsdorfergrund, Germany) at 37 °C for 3–5 min.
# Cytotoxicity was first analysed by water soluble tetrazolium assay (WST-1; Roche, Berlin, Germany), followed by neutral red uptake (NRU) assay. Caco-2 cells were seeded in 96-well plates at a density of 5000 cells per well and differentiated for three weeks. The cells were incubated with both active substances and all of the above-mentioned co-formulants individually, with a combination of the active substances and the respective surfactants in a ratio in accordance with the products, as well as with the respective products, containing all co-formulants, for 24 h. Eight different concentrations were investigated in culture medium with a final concentration of 0.4% DMSO. Triton X-100 (0.1%) served as a positive control. After 24 h incubation a WST-1 assay was performed according to the protocol provided by the supplier.
# Chain of recombinant human Pgp (P08183 whole entry): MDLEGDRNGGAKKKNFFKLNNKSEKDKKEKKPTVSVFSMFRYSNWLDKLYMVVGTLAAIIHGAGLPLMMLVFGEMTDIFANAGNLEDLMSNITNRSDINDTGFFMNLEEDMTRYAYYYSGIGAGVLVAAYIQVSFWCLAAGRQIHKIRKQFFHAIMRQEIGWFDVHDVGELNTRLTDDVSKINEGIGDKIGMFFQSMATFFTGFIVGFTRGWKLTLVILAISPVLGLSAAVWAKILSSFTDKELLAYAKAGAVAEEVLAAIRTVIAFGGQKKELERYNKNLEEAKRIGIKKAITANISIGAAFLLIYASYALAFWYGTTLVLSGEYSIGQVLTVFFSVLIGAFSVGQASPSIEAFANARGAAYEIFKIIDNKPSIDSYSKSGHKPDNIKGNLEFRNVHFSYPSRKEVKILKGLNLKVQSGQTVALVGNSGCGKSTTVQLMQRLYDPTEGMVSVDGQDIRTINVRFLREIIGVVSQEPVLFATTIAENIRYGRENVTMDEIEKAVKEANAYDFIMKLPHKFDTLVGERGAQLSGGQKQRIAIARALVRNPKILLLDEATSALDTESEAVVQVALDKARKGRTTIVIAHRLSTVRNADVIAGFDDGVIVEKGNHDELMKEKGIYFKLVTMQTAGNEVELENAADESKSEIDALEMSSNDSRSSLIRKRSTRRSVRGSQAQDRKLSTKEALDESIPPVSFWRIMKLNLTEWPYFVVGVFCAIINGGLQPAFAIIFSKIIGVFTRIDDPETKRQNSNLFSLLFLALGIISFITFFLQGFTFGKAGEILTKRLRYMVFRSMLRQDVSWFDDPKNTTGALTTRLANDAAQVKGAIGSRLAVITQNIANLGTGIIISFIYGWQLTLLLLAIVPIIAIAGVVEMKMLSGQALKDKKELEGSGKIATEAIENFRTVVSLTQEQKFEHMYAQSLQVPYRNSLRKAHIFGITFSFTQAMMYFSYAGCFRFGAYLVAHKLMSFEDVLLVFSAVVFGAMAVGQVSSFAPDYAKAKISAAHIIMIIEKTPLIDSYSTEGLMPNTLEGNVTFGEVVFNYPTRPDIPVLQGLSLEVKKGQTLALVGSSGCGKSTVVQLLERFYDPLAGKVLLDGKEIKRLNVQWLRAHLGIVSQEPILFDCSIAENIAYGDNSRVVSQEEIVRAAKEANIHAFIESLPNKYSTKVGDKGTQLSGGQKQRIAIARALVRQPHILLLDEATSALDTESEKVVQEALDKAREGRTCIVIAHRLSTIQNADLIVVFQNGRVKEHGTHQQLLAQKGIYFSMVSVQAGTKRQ
Compound,impact on the fluorescence anisotropy ([1]; 10 mg/L),"stimulation of Pgp ATPase activity compared to the untreated control (recombinant human Pgp; 1.25 mg/L (lowest concentration), without verapamil)","maximum decreased ΔRLU value compared to the verapamil control (recombinant human Pgp; verapamil-stimulated (200 µM) Pgp ATPase activity, 2.5–64 mg/L, concentration-dependent inhibition) [%]",impact on the fluorescence anisotropy ([1]; 64 mg/L),cytotoxic effects over the tested concentration range (Caco-2 cells)
abamectin,did not show a statistically significant impact,approximately 250%,30,–,–
CCCCCCC(C)OC(=O)COc1nc(F)c(Cl)c(N)c1Cl (centres unmarked) [fluroxypyr-meptyl],–,–,–,did not show a statistically significant impact,did not show significant cytotoxic effects
